From publication PMC8355587, “The Potential of Lisosan G as a Possible Treatment for Glaucoma” (Frontiers in Pharmacology, 2021)
Read-outs that look alike come from different tables or passages of the source.

Tests used:
[1] = UHPLC-MS of LG components in the retina after LG gavage; format: in vivo, mouse; conditions: for AUC 0-24h in the retina / C max in the retina: *mg of retinal tissue (wet weight), n = 3; for Tmax: retina, 4.15 g LG/Kg of body weight; for retinal levels 24 h after LG administration: longest time period investigated
Procedure: For the analysis of different LG components reaching the retina after LG ingestion, a total of eighteen 6-mo-old D2 mice received an oral administration of LG solution by gavage. The retinas of three mice were dissected and quickly frozen in liquid nitrogen after 0 or 30 min and after 1, 2, 6, or 24 h. The retinas were stored at −80°C until used for mass spectrometry.
Assuming an average mouse body weight of 20 g, this dose corresponded to 4.15 g LG/Kg of body weight (human equivalent dose, 340 mg LG/Kg of body weight).
The main components of LG were determined in the LG powder (1 mg sample) using the same procedure as described below for the retinas. The most abundant were gallic acid, 4-hydroxybenzoic acid, quercetin, and nicotinamide (Table 2), therefore these metabolites were chosen as the LG components to be determined in the retina. To this aim, LG was administered to the mice by gavage and the retinas were dissected at different time points. The two retinas from each mouse were pooled together and they were resuspended in 0.2 ml of ice cold ultra-pure water (18 MΏ-cm) to lyse the cells. Three independent samples were analyzed for each time point. The tubes were plunged into dry ice or in a circulating bath at −25°C for 0.5 min and then into a water bath at 37°C for 0.5 min. Subsequently, 0.6 ml of −20°C methanol and then 0.4 ml of −20°C chloroform were added to each tube. The tubes were mixed every 5 min for 30 min, then they were centrifuged at 1000 × g for 1 min at 4°C, before being transferred to −20°C for 2–8 h. After centrifugation at 15,000 × g for 10 min at 4°C, the supernatants were collected and dried. Finally, the dried samples were resuspended in 0.1 ml of water and transferred to glass autosampler vials for LC-MS analysis. The supernatants were injected (20 μl) into a UHPLC system (Ultimate 3000; ThermoFisher Scientific, Waltham, MA, United States) and run in negative ion mode for determination of 4-hydroxy benzoic acid and in positive ion mode for the other. A ReproSil C18 column (2.0 mm × 150 mm, 2.5 μm; Dr Maisch, Ammerbuch-Entringen, Germany) was used for metabolite separation. […] For positive ion mode (+) MS analyses, a 0–100% linear gradient of solvent A (ddH2O, 0.1% formic acid) to B (acetonitrile, 0.1% formic acid) was employed over 20 min returning to 100% A in 3 min. For negative ion mode chromatographic separations A 0–100% linear gradient of solvent A (double-distilled 18 MΏ-cm water, […]) to B (100% acetonitrile, 10 mm ammonium acetate) was employed over 20 min, returning to 100% A in 3 min and a […] solvent A hold. The UHPLC system was coupled online with a mass spectrometer Q Exactive (ThermoFisher) scanning in full MS mode (2 μ scans) at 70,000 resolution in the 60–1000 m/z range. Data files were processed by MAVEN. 8.1 (http://genomics-pubs.princeton.edu/mzroll/) upon conversion of raw files into mzXML format through MassMatrix (Yellow Springs, OH, United States). Standard curves were obtained with several calibration points (2–0.00002 mg) of gallic acid, 4-hydroxybenzoic acid, quercetin, and nicotinamide analytical standards (Sigma Aldrich, St Louis, MO, United States).

[2] = set-up: method as in printed; conditions: general statement, no test and ref not given; cited from earlier work
[3] = D2 mice, LG by gavage 1 ml of 83 mg LG/ml (4.15 g LG/Kg)

Compound	AUC 0-24h in the retina [1, 3] [ng·h/mg]	C max in the retina [1, 3] [ng/mg]	time within which retinal levels decreased ([1]; after LG administration by gavage) [h]	Tmax ([1]; mouse, po, D2 mice, LG by gavage 1 ml of 83 mg LG/ml (4.15 g LG/Kg), read-out: T max in the retina) [min]	T max in the retina [1, 3] [min]	solubility in water [2]	T max in the retina ([1]; D2, mouse, in vivo, po) [min]	retinal levels 24 h after LG administration [1]	Tmax ([1]; D2, mouse, po, after LG administration by gavage, read-out: time of maximum concentration in the retina) [min]
O=c1c(O)c(-c2ccc(O)c(O)c2)oc2cc(O)cc(O)c12 [Quercetin, quercetin]	0.263 ± 0.049	0.061 ± 0.016	≤ 2	30					
O=C(O)c1ccc(O)cc1 [Hydroxy benzoic acid, 4-hydroxybenzoic acid]	958.500 ± 291.500	444.250 ± 109.713			30	only slightly soluble in water			
O=C(O)c1cc(O)c(O)c(O)c1 [Gallic acid, gallic acid]							30	still in the range of its maximum concentration	
NC(=O)c1cccnc1 [Nicotinamide, nicotinamide]	106.900 ± 52.210	8.040 ± 1.274						detectable, although low	360
